As usually defined, the EC50 is the midpoint of the concentration-response curve.

Where “and” joins values, the source holds several entries; their conditions need not be identical. Equal entries are not always repeated.

The target in data set [1] is T1, cloned P2X7 ATP-activated channel (human P2RX7 gene expressed in HEK293 cells) (Homo sapiens, UniProt Q99572).
T1 construct: HEK293 cells were stably transfected with the appropriate ion channel cDNA encoding the pore-forming channel subunit; expressed in transfected cells
T1 sequence (Q99572 1-595): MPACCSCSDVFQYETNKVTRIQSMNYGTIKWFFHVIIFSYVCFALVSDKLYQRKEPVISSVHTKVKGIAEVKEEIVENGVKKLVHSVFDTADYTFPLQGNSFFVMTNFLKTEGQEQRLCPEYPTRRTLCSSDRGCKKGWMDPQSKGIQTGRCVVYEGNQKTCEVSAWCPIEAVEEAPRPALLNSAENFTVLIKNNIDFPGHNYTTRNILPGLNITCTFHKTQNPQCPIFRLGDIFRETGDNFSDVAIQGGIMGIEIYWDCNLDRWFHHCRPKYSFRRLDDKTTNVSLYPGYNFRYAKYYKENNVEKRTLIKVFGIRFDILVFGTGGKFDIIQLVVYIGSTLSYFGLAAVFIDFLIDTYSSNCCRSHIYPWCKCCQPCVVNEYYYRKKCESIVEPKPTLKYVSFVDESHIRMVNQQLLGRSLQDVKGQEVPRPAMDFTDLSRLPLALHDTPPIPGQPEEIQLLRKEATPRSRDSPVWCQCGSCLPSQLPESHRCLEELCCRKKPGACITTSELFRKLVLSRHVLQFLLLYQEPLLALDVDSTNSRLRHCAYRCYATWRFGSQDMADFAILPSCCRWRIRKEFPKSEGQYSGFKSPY
Nature of the data set: Electrochemical patch clamp assay of P2X7 receptor activation (agonist mode, QPatch HT). As to conditions: for EC50: whole-cell patch clamp, holding voltage −80 mV, room temperature; for Individual Data Points (% Activation): single cells; for decrease in EC50 when compared to BzBz-ATP / decrease in EC50 when compared to native ATP: ratio of EC50 values. The class given is cell-based.

A further data set deals with T2, P2X7 (Homo sapiens, UniProt Q99572).
T2 sequence (Q99572 1-595): T1 sequence (Q99572 1-595)
As to conditions: stated without test; read-out: EC50 as P2X7 agonist; cited from earlier work.

Data set [2] is described as follows: UV radical generation activity. Format: physicochemical.
The subject of data set [3] is DMBA/TPA-induced skin papillomas and squamous spindle-cell carcinomas. As to the kind of experiment: Mouse two-step DMBA/TPA skin neoplasia model, local co-treatment with BzBzATP. Format: in vivo. The procedure:
Experiments were performed to test the hypothesis that activation of the P2X7 receptor could inhibit development of epidermal neoplasia. These experiments utilized the mouse two-step DMBA/TPA skin neoplasia model, which involves tumor initiation by local treatment with DMBA, followed by tumor promotion by local treatment with TPA. Agarwal et al, “Inhibitory effect of 18beta-glycyrrhetinic acid on 12-O-tetradecanoyl phorbol-13-acetate-induced cutaneous oxidative, stress and tumor promotion in mice” Redox Rep 10:151-157 (2005); and Guo et al, “Disruption of EphA2 receptor tyrosine kinase leads to increased susceptibility to carcinogenesis in mouse skin” Cancer Res 66:7050-7058 (2006). Mice had their dorsal skin shaved, and DMBA was applied once by topical application onto the shaved dorsal skin. TPA treatment by topical application onto the shaved dorsal skin was started one week later and continued twice a week for 12 weeks.
Animals were divided into three groups: Control mice (n=15) that had their back shaved and were treated only with the vehicle; DMBA/TPA-treated mice (n=15); and DMBA/TPA-treated mice that were co-treated with BzBzATP twice a week from week −2 (i.e. two weeks prior to DMBA) (n=14). All treatments were applied locally on the shaved dorsal skin. Papilloma development was monitored weekly from week 5 to 12 after the DMBA. Endpoints were percent animals with at least one papilloma; number of papilloma per animal; and mean papilloma size (e.g., millimeters of the largest lesion dimension). None of the animals in the control group had developed papillomas.
To evaluate the effects of BzBzATP, changes in skin lesions in the DMBA/TPA and DMBA/TPA+BzBzATP groups were compared relative to the length of treatment. Since formation of papillomas and cancerous lesions was time-related (i.e., for example, a marked cut-off occurs between weeks 13-14; see, FIG. 4A), data were analyzed separately for weeks 0-12 and weeks 14-28.

Setting [4] is: week 10, DMBA/TPA+BzBzATP group.
Setting [5] is: week 12, DMBA/TPA+BzBzATP group.
[6] abbreviates: week 28, DMBA/TPA+BzBzATP group.

Consider `Nc1ncnc2c1ncn2[C@@H]1O[C@H](COP(=O)(O)OP(=O)(O)OP(=O)(O)O)[C@@H](O)[C@H]1O` [NaATP, adenosine triphosphate, reference compound], for which the entries for the “Mean % P2X7 Activation” value in data set [1] (Conc 300 μM) and in data set [1] (Conc 750 μM) were 40.9% and 75.4%, respectively. In addition, the EC50 in data set [1] is 363 µM; at P2X7 it was approximately 100 µM.
`Nc1ncnc2c1ncn2[C@@H]1O[C@H](COP(=O)(O)OP(=O)(O)OP(=O)(O)O)[C@@H](OC(=O)c2cccc(Oc3ccccc3)c2)[C@H]1O` [ATP-(3-phenoxy)benzoyl, 3-phenoxybenzoyl-ATP]: in data set [1] (Conc 1 μM), the “Mean % P2X7 Activation” value turned out to be 12.3%; the “Individual Data Points (% Activation)” value was 7.0% and 45.4% and 6.7% and −9.7%. Besides, in data set [1] (Conc 10 μM), the “Mean % P2X7 Activation” value came out at 74.7%; the “Individual Data Points (% Activation)” value is 36.6% and 167.5% and 39.7% and 54.9%. In data set [1] (Conc 100 μM), the “Mean % P2X7 Activation” value was determined as 186.3%; the “Individual Data Points (% Activation)” value is 85.6% and 284.3% and 136.9% and 238.4%. In data set [1] (Conc 500 μM), the “Mean % P2X7 Activation” value came to 320.8%; the “Individual Data Points (% Activation)” value was 346.4% and 357.0% and 209.5% and 370.2%. For the same molecule, in data set [1], the “decrease in EC50 when compared to BzBz-ATP” value (“decrease … to BzBz-ATP” below) was approximately 445%, the “decrease in EC50 when compared to native ATP” value (from here on “decrease … to native ATP”) is recorded as approximately 738% and the response was half-maximal at 49.1 µM (EC50).
As for `Nc1ncnc2c1ncn2[C@@H]1O[C@H](COP(=O)(O)OP(=O)(O)OP(=O)(O)O)[C@@H](OC(=O)c2ccccc2)[C@H]1O` [3′-O-(Benzoyl) Adenosine-5-Triphosphate, 3′-O-(benzoyl)-adenosine-5-triphosphate], in data set [1] (Conc 1 μM), the “Mean % P2X7 Activation” value was 8.3%; the “Individual Data Points (% Activation)” value is 15.8% and 9.7% and −0.7%. Also, in data set [1] (Conc 10 μM), the “Mean % P2X7 Activation” value is 43.0%; the “Individual Data Points (% Activation)” value is 65.4% and 42.3% and 21.3%. In addition, in data set [1] (Conc 100 μM), the “Mean % P2X7 Activation” value is given as 94.5%; the “Individual Data Points (% Activation)” value is 102.5% and 82.3% and 98.7%. Further, in data set [1] (Conc 500 μM), the “Mean % P2X7 Activation” value is 129.2%; the “Individual Data Points (% Activation)” value was 148.4% and 129.1% and 110.2%. Further, in data set [1], the “decrease … to BzBz-ATP” value is approximately 910%, the “decrease … to native ATP” value is listed as approximately 1511% and the EC50 was found to be 24 µM. The “UV radical generation activity” value in data set [2] is “low or no UV radical generation activity”.
As to “2′,3′-0-(4-benzoylbenzoyl)-adenosine 5′-triphosphate [BzBzATP, reference compound]”, in data set [1], the “P2X7 receptor activation efficacy, comparison in words” value is “slight improvement of receptor activation efficacy” and the EC50 was found to be 218 µM. In data set [1] (Conc 1 μM), the “Mean % P2X7 Activation” value came to 0.0%; the “Individual Data Points (% Activation)” value is 0.1% and 0.0% and −0.2%. Moreover, in data set [1] (Conc 10 μM), the “Mean % P2X7 Activation” value is reported as 6.7%; the “Individual Data Points (% Activation)” value was 2.2% and 14.9% and 2.9%. Further, in data set [1] (Conc 100 μM), the “Mean % P2X7 Activation” value was found to be 16.9%; the “Individual Data Points (% Activation)” value is 7.2% and 29.6% and 13.8%. In addition, the “Individual Data Points (% Activation)” value in data set [1] (Conc 200 μM) is 34.8% and 41.8% and 39.4%. Further, in data set [1] (Conc 500 μM), the “Mean % P2X7 Activation” value amounted to 100.0% and the “Individual Data Points (% Activation)” value was found to be 100.0%. Also, the half-maximal effective concentration (EC50) on P2X7 was approximately 50 µM. For the same molecule, the “TUNEL staining of papilloma tissue” value in data set [3] (biopsy at week 10, basal/parabasal regions) is on record as “intense TUNEL staining”. Further, in data set [3] (versus DMBA/TPA group), the “decrease of the mean number of papillomas per animal” value is on record as “about 25%”, the “decrease of the mean papilloma size” value was “about 45%” and the “proportion of living animals with cancerous lesions >200 mm^3” value was “differences did not reach statistical significance”. The “proportion of living animals having a papilloma” value in data set [3] (week 5, DMBA/TPA+BzBzATP group) was 48±12%. The “animals having at least one papilloma” value in data set [3] (week 6, DMBA/TPA+BzBzATP group) came to 53.8%. In addition, in data set [3] (setting [4]), the “papillomas per animal (mean±SEM)” value is recorded as 1.23±0.34 and the “papillomas per living animal (mean±SD)” value was found to be 1.2±0.4. In data set [3] (setting [5]), the “mean papilloma size per animal (mean±SEM)” value amounted to 3.46±0.73 mm and the “mean total papillomas size per animal (mean±SD)” value is recorded as 3.4±1.0 mm. In data set [3] (week 12, DMBA/TPA+BzBzATP group, local on dorsal skin twice a week), the “animals that developed at least one skin papilloma” value is recorded as 78%. In addition, in data set [3] (setting [6]), the “proportion of living animals with cancerous lesions” value was determined as 43±9% and the “proportion of living animals with cancerous lesions >10 mm^3” value is given as 16±4%. Also, the “UV radical generation activity” value in data set [2] is listed as “high degree of UV radical generation activity”.
Take `Nc1ncnc2c1ncn2[C@@H]1O[C@H](COP(=O)(O)OP(=O)(O)OP(=O)(O)O)[C@@H](OC(=O)/C=C/c2ccccc2)[C@H]1O` [cinnamoyl-ATP]: the “UV radical generation activity” value in data set [2] was “low or no UV radical generation activity”.
Turning to `CCCCCCCCCCCC(=O)O[C@H]1[C@@H](O)[C@H](n2cnc3c(N)ncnc32)O[C@@H]1COP(=O)(O)OP(=O)(O)OP(=O)(O)O` [ATP-lauroyl, lauroyl-ATP], the “dissolution in a solution with 0.3% DMSO” value was “not totally dissolved”. Further, in data set [1] (Conc 1 μM), the “Mean % P2X7 Activation” value amounted to 8.1%; the “Individual Data Points (% Activation)” value was −2.1% and 26.6% and −0.3%. Moreover, in data set [1] (Conc 10 μM), the “Mean % P2X7 Activation” value is 29.9%; the “Individual Data Points (% Activation)” value is 45.1% and 18.1% and 26.4%. Further, in data set [1] (Conc 100 μM), the “Mean % P2X7 Activation” value stood at 42.0%; the “Individual Data Points (% Activation)” value is 38.7% and 64.8% and 22.6%. In data set [1] (Conc 500 μM), the “Mean % P2X7 Activation” value turned out to be 96.9%; the “Individual Data Points (% Activation)” value is 98.3% and 124.6% and 67.7%. In addition, in data set [1], the “decrease … to BzBz-ATP” value was approximately 350%, the “decrease … to native ATP” value is listed as approximately 580% and the EC50 is 62.4 µM. The molecule further had an EC50 in data set [1] (listed as lauroyl-ATP) of approximately 62 µM. Further, the “UV radical generation activity” value in data set [2] is reported as “low or no UV radical generation activity”.

Source of the values: US20210100826A1 (UNIVERSITY HOSPITAL CLEVELAND MEDICAL CENTER, priority 2017, published 2021).
